Experiment [1] deals with T1, HiBiT-BRM fusion protein in stable HeLa cell line (Homo sapiens, UniProt P51531).
T1 construct: expressed in transfected cells
The experiment can be described thus: HiBiT-BRM cell-based degradation assay (Nano-Glo HiBiT Lytic Detection, 24 h). On the set-up: DC50: scale not given here. To be noted: HeLa HiBiT-BRM cells; for DC50: read-out: BRM HiBit Degradation IC50; for BRM HiBit Degradation Maximum (%): top dose 30 μM. Summed up: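 HeLa stably expressing HiBiT-BRM; 24 h compound exposure, 10-pt 3-fold dilution from 30 μM final, duplicates. Lytic LgBiT complementation, luminescence. % degradation vs DMSO (HC) and 2 μM known BRM/BRG1 degrader (LC).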

Experiment [2] addresses T2, HiBit-BRG1 fusion protein in stable HeLa cell line expressing HiBit-BRG1 and LgBit (Homo sapiens, UniProt P51532).
T2 construct: expressed in transfected cells
Kind of experiment: HiBiT-BRG1 cell-based degradation assay (Nano-Glo HiBiT, 24 h). To be noted: HeLa HiBit-BRG1/LgBit cells; for DC50: read-out: BRMG1 HiBit Degradation IC50; for Dmax: top dose 30 μM, read-out: BRG1 HiBit Degradation Maximum (%). Summed up: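 Degradation calculated from NanoBiT luminescence relative to DMSO-treated cells (high) and cells given 2 μM known BRM/BRG1 degrader (low). HeLa cells stably expressing HiBiT-BRG1 plus LgBiT were exposed to compound for 24 h before lytic HiBiT detection.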

The results in this text go back to US20260193264A1, “BENZOYPARAZINE PYRAZINES AND THEIR USES” (FOGHORN THERAPEUTICS INC., priority 2022, published 2026).

T1 sequence (P51531 whole entry, the tested form may be a part): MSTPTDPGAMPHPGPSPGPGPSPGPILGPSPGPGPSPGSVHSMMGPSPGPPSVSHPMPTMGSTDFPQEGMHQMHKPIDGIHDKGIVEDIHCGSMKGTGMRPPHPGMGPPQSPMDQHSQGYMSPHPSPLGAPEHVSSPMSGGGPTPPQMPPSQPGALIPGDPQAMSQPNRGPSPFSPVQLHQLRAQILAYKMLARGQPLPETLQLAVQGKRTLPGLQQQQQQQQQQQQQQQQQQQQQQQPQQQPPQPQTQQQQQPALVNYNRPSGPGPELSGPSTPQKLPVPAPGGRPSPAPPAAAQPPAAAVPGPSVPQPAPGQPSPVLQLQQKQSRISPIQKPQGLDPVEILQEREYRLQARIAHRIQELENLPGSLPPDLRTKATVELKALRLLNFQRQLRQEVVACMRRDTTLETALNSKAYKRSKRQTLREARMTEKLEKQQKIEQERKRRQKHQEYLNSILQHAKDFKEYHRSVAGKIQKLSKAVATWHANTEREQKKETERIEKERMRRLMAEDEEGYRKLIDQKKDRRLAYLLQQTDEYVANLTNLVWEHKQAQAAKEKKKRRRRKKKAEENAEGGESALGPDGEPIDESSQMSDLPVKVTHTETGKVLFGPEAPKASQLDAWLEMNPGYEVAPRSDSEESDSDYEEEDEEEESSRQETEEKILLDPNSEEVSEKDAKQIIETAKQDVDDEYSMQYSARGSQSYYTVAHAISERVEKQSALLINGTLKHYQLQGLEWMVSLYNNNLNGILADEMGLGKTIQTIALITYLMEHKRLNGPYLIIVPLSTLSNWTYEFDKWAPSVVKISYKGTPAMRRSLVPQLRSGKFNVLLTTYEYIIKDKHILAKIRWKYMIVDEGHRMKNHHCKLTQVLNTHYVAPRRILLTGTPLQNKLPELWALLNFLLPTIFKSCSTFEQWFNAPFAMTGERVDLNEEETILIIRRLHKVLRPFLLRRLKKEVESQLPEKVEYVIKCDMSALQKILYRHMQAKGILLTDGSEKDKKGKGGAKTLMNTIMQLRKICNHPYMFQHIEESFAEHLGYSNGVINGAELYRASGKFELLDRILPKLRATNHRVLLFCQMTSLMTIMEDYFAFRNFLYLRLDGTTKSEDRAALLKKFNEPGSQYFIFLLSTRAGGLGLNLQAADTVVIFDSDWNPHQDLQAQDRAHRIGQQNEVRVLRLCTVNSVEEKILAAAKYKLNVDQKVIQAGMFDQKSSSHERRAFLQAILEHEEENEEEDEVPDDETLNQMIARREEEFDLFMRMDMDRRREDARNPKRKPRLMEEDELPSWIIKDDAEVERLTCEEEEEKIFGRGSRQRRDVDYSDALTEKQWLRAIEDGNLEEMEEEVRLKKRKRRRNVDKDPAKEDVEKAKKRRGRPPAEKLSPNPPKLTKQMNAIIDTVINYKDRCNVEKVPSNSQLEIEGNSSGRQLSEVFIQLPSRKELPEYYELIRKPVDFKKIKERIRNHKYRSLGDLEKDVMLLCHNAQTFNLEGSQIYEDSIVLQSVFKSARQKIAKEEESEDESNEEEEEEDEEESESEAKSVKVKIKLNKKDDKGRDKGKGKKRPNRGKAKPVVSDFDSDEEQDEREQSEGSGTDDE
T2 sequence (P51532 whole entry, the tested form may be a part): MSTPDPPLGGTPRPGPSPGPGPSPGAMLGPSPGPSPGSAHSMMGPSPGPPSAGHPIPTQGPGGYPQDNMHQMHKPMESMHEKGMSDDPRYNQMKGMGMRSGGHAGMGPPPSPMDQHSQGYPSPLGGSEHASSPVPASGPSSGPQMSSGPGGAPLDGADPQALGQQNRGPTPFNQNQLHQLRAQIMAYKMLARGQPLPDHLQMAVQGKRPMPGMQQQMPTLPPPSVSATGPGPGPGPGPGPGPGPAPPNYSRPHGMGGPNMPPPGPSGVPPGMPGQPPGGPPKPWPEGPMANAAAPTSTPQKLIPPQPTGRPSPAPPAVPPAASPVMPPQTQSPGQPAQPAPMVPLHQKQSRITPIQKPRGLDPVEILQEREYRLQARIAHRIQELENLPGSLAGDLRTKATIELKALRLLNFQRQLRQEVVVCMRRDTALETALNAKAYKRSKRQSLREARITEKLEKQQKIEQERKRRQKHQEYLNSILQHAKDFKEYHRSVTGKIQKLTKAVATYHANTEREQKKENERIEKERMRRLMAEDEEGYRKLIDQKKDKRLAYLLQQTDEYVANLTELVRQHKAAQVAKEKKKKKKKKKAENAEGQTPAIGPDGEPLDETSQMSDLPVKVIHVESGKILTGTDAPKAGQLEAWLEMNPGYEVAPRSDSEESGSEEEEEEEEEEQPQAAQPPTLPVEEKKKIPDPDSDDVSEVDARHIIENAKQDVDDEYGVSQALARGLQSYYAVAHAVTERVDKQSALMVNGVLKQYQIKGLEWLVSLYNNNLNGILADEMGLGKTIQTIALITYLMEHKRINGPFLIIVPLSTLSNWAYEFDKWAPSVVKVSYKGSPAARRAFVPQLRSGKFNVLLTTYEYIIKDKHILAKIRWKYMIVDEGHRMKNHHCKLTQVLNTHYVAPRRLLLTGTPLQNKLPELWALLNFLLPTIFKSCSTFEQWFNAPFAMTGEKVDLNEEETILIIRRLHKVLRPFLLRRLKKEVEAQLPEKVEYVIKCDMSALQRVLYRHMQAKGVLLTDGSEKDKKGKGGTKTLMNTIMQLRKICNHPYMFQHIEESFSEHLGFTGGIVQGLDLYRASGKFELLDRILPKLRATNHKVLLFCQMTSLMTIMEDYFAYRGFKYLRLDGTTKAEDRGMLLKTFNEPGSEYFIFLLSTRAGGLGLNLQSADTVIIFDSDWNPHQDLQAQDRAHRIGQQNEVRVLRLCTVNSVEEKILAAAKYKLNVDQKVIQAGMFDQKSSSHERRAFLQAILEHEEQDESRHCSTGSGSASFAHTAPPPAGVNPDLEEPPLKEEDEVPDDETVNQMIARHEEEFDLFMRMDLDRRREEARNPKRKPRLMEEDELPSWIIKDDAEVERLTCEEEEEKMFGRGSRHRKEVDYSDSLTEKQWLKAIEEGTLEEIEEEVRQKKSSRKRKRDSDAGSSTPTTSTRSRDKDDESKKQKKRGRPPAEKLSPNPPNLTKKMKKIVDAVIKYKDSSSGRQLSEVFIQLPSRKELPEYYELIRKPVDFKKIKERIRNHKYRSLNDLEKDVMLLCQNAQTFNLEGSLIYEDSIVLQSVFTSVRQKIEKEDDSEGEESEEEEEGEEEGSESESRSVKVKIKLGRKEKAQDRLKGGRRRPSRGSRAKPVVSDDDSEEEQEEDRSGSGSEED

Turning to `Cc1ncsc1-c1ccc([C@H](C)NC(=O)[C@@H]2C[C@@H](O)CN2C(=O)[C@@H](c2cc(N3CCC4(CCN(c5ccc6cc(-c7ccccc7O)nnc6c5)CC4)CC3)no2)C(C)C)cc1` [Compound 106, (2S,4R)-4-hydroxy-1-((R)-2-(3-(9-(3-(2-hydroxyphenyl)cinnolin-7-yl)-3,9-diazaspiro [5.5]undecan-3-yl)isoxazol-5-yl)-3-methylbutanoyl)-N-((S)-1-(4-(4-methylthiazol-5-yl)phenyl)ethyl)pyrrolidine-2-carboxamide], in experiment [1], the DC50 is < 10 nM and the “BRM HiBit Degradation Maximum (%)” value is on record as “A (“A” indicates maximum degradation ≥75%)”. Further, in experiment [2], the DC50 is < 10 nM and the Dmax was > 75%.
Regarding `Cc1ncsc1-c1ccc([C@H](C)NC(=O)[C@@H]2C[C@@H](O)CN2C(=O)[C@@H](c2cc(N3CCN([C@@H]4CCN(c5ccc6cc(-c7ccccc7O)nnc6c5)CC4(F)F)CC3)no2)C(C)C)cc1` [Compound 107, (2S,4R)-1-((R)-2-(3-(4-((R)-3,3-difluoro-1-(3-(2-hydroxyphenyl)cinnolin-7-yl)piperidin-4-yl)piperazin-1-yl)isoxazol-5-yl)-3-methylbutanoyl)-4-hydroxy-N-((S)-1-(4-(4-methylthiazol-5-yl)phenyl)ethyl)pyrrolidine-2-carboxamide], in experiment [1], the DC50 is < 10 nM and the “BRM HiBit Degradation Maximum (%)” value was “A (“A” indicates maximum degradation ≥75%)”. In addition, in experiment [2], the DC50 was < 10 nM and the Dmax was > 75%.
As for `Cc1ncsc1-c1ccc([C@H](C)NC(=O)[C@@H]2C[C@@H](O)CN2C(=O)C(c2cc(N3CCC4(CN(c5ccc6cc(-c7ccccc7O)nnc6c5)C4)C(F)(F)C3)no2)C(C)C)cc1` (stereo partly drawn) [Compound 108, (2S,4R)-1-(2-(3-(5,5-difluoro-2-(3-(2-hydroxyphenyl)cinnolin-7-yl)-2,7-diazaspiro [3.5]nonan-7-yl)isoxazol-5-yl)-3-methylbutanoyl)-4-hydroxy-N-((S)-1-(4-(4-methylthiazol-5-yl)phenyl)ethyl)pyrrolidine-2-carboxamide], in experiment [1], the DC50 is < 10 nM and the “BRM HiBit Degradation Maximum (%)” value is recorded as “A (“A” indicates maximum degradation ≥75%)”. Further, in experiment [2], the DC50 is > 10 nM and the Dmax was > 75%.
Consider `CC(C)[C@@H](C(=O)N1C[C@H](O)C[C@H]1C(=O)N[C@@H](C)c1ccc(Br)cc1)c1cc(N2CC3(CN(c4ccc5cc(-c6ccccc6O)nnc5c4)C3)C2)no1` [Compound 109, (2S,4R)-N-((S)-1-(4-bromophenyl)ethyl)-4-hydroxy-1-((R)-2-(3-(6-(3-(2-hydroxyphenyl)cinnolin-7-yl)-2,6-diazaspiro[3.3]heptan-2-yl)isoxazol-5-yl)-3-methylbutanoyl)pyrrolidine-2-carboxamide], for which, in experiment [1], the DC50 is < 10 nM and the “BRM HiBit Degradation Maximum (%)” value is “A (“A” indicates maximum degradation ≥75%)”. Besides, the Dmax in experiment [2] was < 50%.
On to `CC(C)[C@@H](C(=O)N1C[C@H](O)C[C@H]1C(=O)N[C@@H](C)c1ccccc1F)c1cc(N2CC3(CN(c4ccc5cc(-c6ccccc6O)nnc5c4)C3)C2)no1` [Compound 110, (2S,4R)-N-((S)-1-(2-fluorophenyl)ethyl)-4-hydroxy-1-((R)-2-(3-(6-(3-(2-hydroxyphenyl)cinnolin-7-yl)-2,6-diazaspiro[3.3]heptan-2-yl)isoxazol-5-yl)-3-methylbutanoyl)pyrrolidine-2-carboxamide], for which, in experiment [1], the DC50 was < 10 nM and the “BRM HiBit Degradation Maximum (%)” value was “A (“A” indicates maximum degradation ≥75%)”. In addition, in experiment [2], the Dmax was < 50%.
Consider `CC(C)[C@@H](C(=O)N1C[C@H](O)C[C@H]1C(=O)NCc1ccccc1)c1cc(N2CC3(CN(c4ccc5cc(-c6ccccc6O)nnc5c4)C3)C2)no1` [Compound 111, (2S,4R)-N-benzyl-4-hydroxy-1-((R)-2-(3-(6-(3-(2-hydroxyphenyl)cinnolin-7-yl)-2,6-diazaspiro[3.3]heptan-2-yl)isoxazol-5-yl)-3-methylbutanoyl)pyrrolidine-2-carboxamide], for which, in experiment [1], the DC50 is < 10 nM and the “BRM HiBit Degradation Maximum (%)” value is “A (“A” indicates maximum degradation ≥75%)”. For the same compound, the Dmax in experiment [2] is < 50%.
Turning to `CC(C)C(C(=O)N1C[C@H](O)C[C@H]1C(=O)N[C@@H](C)c1ccc(C#N)cc1)c1cc(N2CC3(CN(c4ccc5cc(-c6ccccc6O)nnc5c4)C3)C2)no1` (stereo partly drawn) [Compound 112, (2S,4R)-N-((S)-1-(4-cyanophenyl)ethyl)-4-hydroxy-1-(2-(3-(6-(3-(2-hydroxyphenyl)cinnolin-7-yl)-2,6-diazaspiro[3.3]heptan-2-yl)isoxazol-5-yl)-3-methylbutanoyl)pyrrolidine-2-carboxamide], in experiment [1], the DC50 is < 10 nM and the “BRM HiBit Degradation Maximum (%)” value is recorded as “A (“A” indicates maximum degradation ≥75%)”. In experiment [2], the DC50 is > 10 nM and the Dmax was > 50%.
Turning to `CC(C)C(C(=O)N1C[C@H](O)C[C@H]1C(=O)N[C@@H](C)c1ccc(Cl)cc1)c1cc(N2CC3(CN(c4ccc5cc(-c6ccccc6O)nnc5c4)C3)C2)no1` (stereo partly drawn) [Compound 113, (2S,4R)-N-((S)-1-(4-chlorophenyl)ethyl)-4-hydroxy-1-(2-(3-(6-(3-(2-hydroxyphenyl)cinnolin-7-yl)-2,6-diazaspiro[3.3]heptan-2-yl)isoxazol-5-yl)-3-methylbutanoyl)pyrrolidine-2-carboxamide], in experiment [1], the DC50 is < 10 nM and the “BRM HiBit Degradation Maximum (%)” value is “A (“A” indicates maximum degradation ≥75%)”. Further, the Dmax in experiment [2] is < 50%.
On to `CNC(=O)[C@@H]1C[C@@H](O)CN1C(=O)C(c1cc(N2CC3(CN(c4ccc5cc(-c6ccccc6O)nnc5c4)C3)C2)no1)C(C)C` (stereo partly drawn) [Compound 114, (2S,4R)-4-hydroxy-1-(2-(3-(6-(3-(2-hydroxyphenyl)cinnolin-7-yl)-2,6-diazaspiro[3.3]heptan-2-yl)isoxazol-5-yl)-3-methylbutanoyl)-N-methylpyrrolidine-2-carboxamide], for which, in experiment [1], the DC50 is < 10 nM and the “BRM HiBit Degradation Maximum (%)” value is “A (“A” indicates maximum degradation ≥75%)”. For the same compound, the Dmax in experiment [2] was < 50%.
As to `Cc1ncsc1-c1ccc([C@H](C)NC(=O)[C@@H]2C[C@@H](O)CN2C(=O)[C@@H](c2cc(N3CCN([C@H]4CCN(c5ccc6cc(-c7ccccc7O)nnc6c5)CC4(F)F)CC3)no2)C(C)C)cc1` [Compound 115, (2S,4R)-1-((R)-2-(3-(4-((S)-3,3-difluoro-1-(3-(2-hydroxyphenyl)cinnolin-7-yl)piperidin-4-yl)piperazin-1-yl)isoxazol-5-yl)-3-methylbutanoyl)-4-hydroxy-N-((S)-1-(4-(4-methylthiazol-5-yl)phenyl)ethyl)pyrrolidine-2-carboxamide], in experiment [1], the DC50 was < 10 nM and the “BRM HiBit Degradation Maximum (%)” value was “A (“A” indicates maximum degradation ≥75%)”. Also, in experiment [2], the DC50 is < 10 nM and the Dmax is > 75%.
Take `CC(C)[C@@H](C(=O)N1C[C@H](O)C[C@H]1C(=O)N[C@@H](C)c1ccccc1)c1cc(N2CC[C@@H](c3ccc4cc(-c5ccccc5O)nnc4c3)C2)no1` [Compound 116, (2S,4R)-4-hydroxy-1-((R)-2-(3-((S)-3-(3-(2-hydroxyphenyl)cinnolin-7-yl)pyrrolidin-1-yl)isoxazol-5-yl)-3-methylbutanoyl)-N-((S)-1-phenylethyl)pyrrolidine-2-carboxamide]: in experiment [1], the DC50 was < 10 nM and the “BRM HiBit Degradation Maximum (%)” value was “A (“A” indicates maximum degradation ≥75%)”. For the same compound, the Dmax in experiment [2] is < 50%.
As to `Cc1ncsc1-c1ccc(CNC(=O)[C@@H]2C[C@@H](O)CN2C(=O)C(c2cc(N3CC4(CN(c5ccc6cc(-c7ccccc7O)nnc6c5)C4)C3)no2)C(C)C)cc1` (stereo partly drawn) [Compound 117, (2S,4R)-4-hydroxy-1-(2-(3-(6-(3-(2-hydroxyphenyl)cinnolin-7-yl)-2,6-diazaspiro[3.3]heptan-2-yl)isoxazol-5-yl)-3-methylbutanoyl)-N-(4-(4-methylthiazol-5-yl)benzyl)pyrrolidine-2-carboxamide], in experiment [1], the DC50 is < 10 nM and the “BRM HiBit Degradation Maximum (%)” value is recorded as “A (“A” indicates maximum degradation ≥75%)”. For the same compound, in experiment [2], the Dmax is < 50%.
Turning to `CC(C)[C@@H](C(=O)N1C[C@H](O)C[C@H]1C(=O)N[C@@H](C)c1ccccc1)c1cc(N2CC[C@H](c3ccc4cc(-c5ccccc5O)nnc4c3)C2)no1` [Compound 118, (2S,4R)-4-hydroxy-1-((R)-2-(3-((R)-3-(3-(2-hydroxyphenyl)cinnolin-7-yl)pyrrolidin-1-yl)isoxazol-5-yl)-3-methylbutanoyl)-N-((S)-1-phenylethyl)pyrrolidine-2-carboxamide], in experiment [1], the DC50 was > 10 nM and the “BRM HiBit Degradation Maximum (%)” value is reported as “A (“A” indicates maximum degradation ≥75%)”. The Dmax in experiment [2] is < 50%.
As to `CC(C)C(C(=O)N1C[C@H](O)C[C@H]1C(=O)NCC12CC(C1)C2)c1cc(N2CC3(CN(c4ccc5cc(-c6ccccc6O)nnc5c4)C3)C2)no1` (stereo partly drawn) [Compound 119, (2S,4R)-N-(bicyclo[1.1.1]pentan-1-ylmethyl)-4-hydroxy-1-(2-(3-(6-(3-(2-hydroxyphenyl)cinnolin-7-yl)-2,6-diazaspiro[3.3]heptan-2-yl)isoxazol-5-yl)-3-methylbutanoyl)pyrrolidine-2-carboxamide], in experiment [1], the DC50 is > 10 nM and the “BRM HiBit Degradation Maximum (%)” value is listed as “A (“A” indicates maximum degradation ≥75%)”. In experiment [2], the Dmax was < 50%.
